Tests used:
[1] = system: Woodchuck Hepatitis Virus (WHV); test: Seroconversion and antiviral activity in woodchucks chronically infected with WHV; assay type: in vivo, Eastern Woodchucks (Marmota monax); conditions: chronic WHV carrier woodchucks, oral 0.5 mg/kg/day for 28 days
Procedure: Compound A or placebo was administered orally to five woodchucks per group that were chronic carriers of woodchuck hepatitis virus (WHV). Compound A was administered at a dose of 0.5 mg/kg/day for 28 days. Blood samples were collected prior to dosing and multiple times during and after the 28 day dosing period. Antiviral activity of Compound A was assessed by comparing the serum WHV DNA of treated WHV carrier woodchucks with control WHV carrier woodchucks receiving vehicle. The ability of Compound A to cause seroconversion in chronically infected animals was assessed by comparing the serum antibody levels against the woodchuck hepatitis virus surface antigen (anti-WHsAg) in infected animals to the anti-WHsAg antibody levels in placebo treated animals.
The woodchucks used in this study were born to WHV-negative females and reared in environmentally controlled laboratory animal facilities. Woodchucks were inoculated at 3 days of age with 5 million woodchuck infectious doses of a standardized WHV inoculum (cWHV7P1 or WHV7P2). Woodchucks selected for use developed WHV surface antigen (WHsAg) serum antigenemia and became chronic WHV carriers. The chronic carrier status of these woodchucks was confirmed prior to initiation of drug treatment.
Serum WHV DNA concentrations were measured before treatment, during treatment, and during the post-treatment follow-up period at frequent intervals. WHV viremia in serum samples was assessed by dot blot hybridization using three replicate volumes (10 μl) of undiluted serum (sensitivity, 1.0×10^7 WHV genome equivalents per ml [WHVge/ml]) compared with a standard dilution series of WHV recombinant DNA plasmid (pWHV8).
Levels of Woodchuck Hepatitis Virus surface antigen (WHsAg) and antibodies to WHsAg (anti-WHs) were determined before treatment, during treatment, and during the post-treatment follow-up period at frequent intervals, using WHV-specific enzyme immunoassays.
Antiviral activity of Compound A was assessed by comparing the serum WHV DNA and the hepatic WHV nucleic acids of treated WHV carrier woodchucks with control WHV carrier woodchucks receiving vehicle.
Immune stimulatory activity of Compound A to cause seroconversion was assessed by comparing the serum levels of WHsAg and antibodies to WHsAg (anti-WHsAg).

serum cytokines = test: Induction of serum cytokines in mice (ELISA, Luminex/Milliplex); assay type: in vivo, CD-1 mice; conditions: Day 1, 2 hours Post-dose
Procedure: Compound A was dosed once per day for 14 days by oral gavage, at 0.5 mg/kg or 2.5 mg/kg, in CD-1 mice. Mouse serum samples were collected on day 1 and day 14, and serum cytokine levels were determined using the following method. The assay for interferon-a was done by ELISA (VeriKine™ Mouse Interferon Alpha (Mu-IFN-a) ELISA Kit, Product Number: 42100-1, PBL Biomedical Laboratories, New Brunswick, N.J.) and the other serum cytokines were assayed with Luminex and Milliplex bead kits. Cytokine levels were determined using a nonlinear five point parameter curve for interpolation of data using the fit=(A+((B−A)/(1+(((B−E)/(E−A))*((x/C)̂D))))). The results are shown in Table 4 where the cytokine concentrations are expressed in units of pg/mL.

For `CCCCOc1nc(N)c2nc(O)n(Cc3cccc(CN4CCCC4)c3)c2n1` [Compound A, 6-amino-2-butoxy-9-(3-(pyrrolidin-1-ylmethyl)benzyl)-9H-purin-8-ol], the “serum WHV DNA concentrations” value ([1]; FIG. 1) was “caused a substantial reduction in serum WHV DNA concentrations”, the “antibodies against Woodchuck Hepatitis Virus Surface Antigen (anti-WHs)” value ([1]; FIG. 2) was “stimulated production of antibodies against Woodchuck Hepatitis Virus Surface Antigen (WHsAg)” and the “serum levels of WHsAg” value ([1]; FIG. 3) was “caused a substantial reduction in serum levels of WHsAg”. For the same compound, the “seroconversion against WHV” value ([1]; FIGS. 1-3) was “induced seroconversion against WHV”, the “Average Serum IFN-a Level ± Standard Deviation” value (serum cytokines; oral 0.5 mg/kg) was 296.3 ± 322.4 pg/mL and the “Average Serum IL1-β Level ± Standard Deviation” value (serum cytokines; oral 0.5 mg/kg) was 4.8 ± 2.7 pg/mL. The “Average Serum IL6 Level ± Standard Deviation” value (serum cytokines; oral 0.5 mg/kg) was 257.2 ± 420.9 pg/mL, the “Average Serum IL12p40 Level ± Standard Deviation” value (serum cytokines; oral 0.5 mg/kg) was 3.2 ± 0 pg/mL and the “Average Serum IL-10 Level ± Standard Deviation” value (serum cytokines; oral 0.5 mg/kg) was 3.2 ± 0 pg/mL. The “Average Serum TNF-a Level ± Standard Deviation” value (serum cytokines; oral 0.5 mg/kg) was 41.7 ± 42.4 pg/mL, the “Average Serum IFN-a Level ± Standard Deviation” value (serum cytokines; oral 2.5 mg/kg) was 1091.8 ± 413.6 pg/mL and the “Average Serum IL1-β Level ± Standard Deviation” value (serum cytokines; oral 2.5 mg/kg) was 20.8 ± 16.1 pg/mL. The “Average Serum IL6 Level ± Standard Deviation” value (serum cytokines; oral 2.5 mg/kg) was 6710.2 ± 3657.4 pg/mL, the “Average Serum IL12p40 Level ± Standard Deviation” value (serum cytokines; oral 2.5 mg/kg) was 10 ± 11.7 pg/mL and the “Average Serum IL-10 Level ± Standard Deviation” value (serum cytokines; oral 2.5 mg/kg) was 143.4 ± 102.7 pg/mL. The “Average Serum TNF-a Level ± Standard Deviation” value (serum cytokines; oral 2.5 mg/kg) was 407.1 ± 258.1 pg/mL.

From patent US20110150836A1, “METHODS OF TREATING HBV AND HCV INFECTION” (Gilead Sciences, Inc., priority 2009, published 2011)
